Numbered stars: 1 amine (or outer) side, 2 acyl side, 3 side chain; on linkers, the order of the positions; unused ones are H or OH. Bridge positions count the residues as written; N and C are the ends. Square brackets hold non-standard residues; d marks the D form. Side chains are listed from the residue outwards. Peptide text beside a SMILES is read from it. * marks the point of attachment. Nle(6-ylidene) = O=C([C@H](CCCC=[*:3])N[*:1])[*:2]; S7 = C[C@@](CCCCCC=[*:3])(N[*:1])C(=O)[*:2]; X1 = C[C@](CCCCC=[*:3])(N[*:1])C(=O)[*:2]; γGlu = O=C(O)[C@H](CCC(=O)[*:2])N[*:1]; Palmitoyl = CCCCCCCCCCCCCCCC(=O)*; S5 = C=CCCC[C@](C)(N)C(=O)O; Aib = CC(C)(N)C(=O)O
Target: T1, human GCGR (Homo sapiens, UniProt P47871)
T1 construct: expressed in transfected cells; assay-ready frozen cells grown with Blasticidin and Hygromycin
T1 sequence (P47871 26-477): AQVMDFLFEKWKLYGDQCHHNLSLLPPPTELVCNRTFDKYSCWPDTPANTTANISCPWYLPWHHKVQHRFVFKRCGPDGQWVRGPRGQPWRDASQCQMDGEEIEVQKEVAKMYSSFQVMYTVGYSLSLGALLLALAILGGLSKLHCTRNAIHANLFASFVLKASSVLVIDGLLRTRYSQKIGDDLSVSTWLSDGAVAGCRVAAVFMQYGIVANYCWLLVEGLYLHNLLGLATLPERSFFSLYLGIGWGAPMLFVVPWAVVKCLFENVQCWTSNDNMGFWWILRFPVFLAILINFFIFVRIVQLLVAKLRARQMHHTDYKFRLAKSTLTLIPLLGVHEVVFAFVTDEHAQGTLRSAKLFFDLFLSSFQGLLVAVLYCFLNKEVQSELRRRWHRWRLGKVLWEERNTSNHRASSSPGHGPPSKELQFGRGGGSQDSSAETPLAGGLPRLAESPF
Experiment: cAMP activity assay, cells expressing human GCGR (HitHunter cAMP XS)
Type: cell-based
Conditions: for EC50: cAMP production, 1 hour at room temperature, assay buffer with or without 20% human serum (not stated which); for hGCGR/hGLP1R (hTone): ratio of human GCGR EC50 to human GLP1R EC50
Procedure: Activity of the peptides at the Glucagon receptor (GCGR) and GLP-1 receptor (GLP1R) was measured in a cAMP activity assay.
Peptides were dissolved in 100% DMSO and serially diluted to generate 10 point titrations. The peptide solutions were then transferred into 384-well assay plates (150 nL/well).
Assay ready frozen cells expressing human GLP1R or human GCGR were suspended in growth media consisting of DMEM medium (GIBCO), 10% FBS (GIBCO), 1x NEAA(GIBCO), 1x P/S (GIBCO), 10ug/ml Blasticidin (GIBCO) and 200 µg/mL Hygromycin (GIBCO). Cells were then diluted in assay buffer consisting of PBS (GIBCO), 7.5% BSA (Perkin Elmer), 100 µM RO 20-1724 (Sigma), with or without 20% human serum (MP Biomedical). The cell suspensions (15 µL) were then added to the assay plates containing the peptide solutions (30,000 cells/well for human GCGR; 10.000 cells/well for human GLP1R). The cells were incubated for 1 hour at room temperature in the dark. Production of cAMP was determined using HitHunter™ cAMPXS kits (DiscoverX) following manufacturer protocol. The plates were incubated for overnight at room temperature in the dark. Luminescence was measured using an EnVision Multilabel plate reader (Perkin Elmer). Native GLP-1 and Glucagon (Bachem) are used as control peptides. EC50 values were calculated using uses a 4 parameter logistic fit based on the Levenberg-Marquardt algorithm.

| EC50 | hGCGR/hGLP1R (hTone) | Compound |
| --- | --- | --- |
| 5 nM | 1.82 | CC(C)C[C@H](NC(=O)[C@H](Cc1ccc(O)cc1)NC(=O)[C@H](CCCCN)NC(=O)[C@H](CO)NC(=O)[C@H](CCCCN)NC(=O)[C@H](CC(=O)O)NC(=O)[C@H](CO)NC(=O)[C@@H](NC(=O)[C@H](Cc1ccccc1)NC(=O)[C@@H](NC(=O)CNC(=O)[C@H](CCC(N)=O)NC(=O)[C@@H](CO)NC(=O)[C@@H](N)Cc1c[nH]cn1)[C@@H](C)O)[C@@H](C)O)C(=O)N[C@@H](CC(=O)O)C(=O)N[C@@H](CCC(=O)O)C(=O)N[C@@H](CCCNC(=N)N)C(=O)N[C@@H](C)C(=O)N[C@@H](C)C(=O)N[C@]1(C)CCCCC=CCCCCC[C@@](C)(C(=O)N[C@@H](CC(=O)O)C(=O)N[C@H](C(N)=O)[C@@H](C)O)NC(=O)[C@H](CC(C)C)NC(=O)[C@H](Cc2c[nH]c3ccccc23)NC(=O)[C@H](CCC(N)=O)NC(=O)[C@H](C(C)C)NC(=O)[C@H](Cc2ccccc2)NC(=O)[C@H](CC(=O)O)NC1=O [compound 11] (H-H[dS]QGTFTSDKSKYLDERAA[X1]DFVQWL[S7]DT-NH2; staple 20-27) |
| – | 0.77 | CC(C)C[C@H](NC(=O)[C@H](Cc1ccc(O)cc1)NC(=O)[C@H](CCCCN)NC(=O)[C@H](CO)NC(=O)[C@H](CCCCN)NC(=O)[C@H](CC(=O)O)NC(=O)[C@H](CO)NC(=O)[C@@H](NC(=O)[C@H](Cc1ccccc1)NC(=O)[C@@H](NC(=O)CNC(=O)[C@H](CCC(N)=O)NC(=O)[C@@H](CO)NC(=O)[C@@H](N)Cc1c[nH]cn1)[C@@H](C)O)[C@@H](C)O)C(=O)N[C@@H](CC(=O)O)C(=O)N[C@@H](CCC(=O)O)C(=O)N[C@@H](CCCNC(=N)N)C(=O)N[C@@H](C)C(=O)N[C@@H](C)C(=O)N[C@@]1(C)CCCC=CCCC[C@@](C)(C(=O)N[C@@H](Cc2c[nH]c3ccccc23)C(=O)N[C@@H](CC(C)C)C(=O)N[C@@H](CC(C)C)C(=O)N[C@@H](CC(=O)O)C(=O)N[C@H](C(N)=O)[C@@H](C)O)NC(=O)[C@H](C(C)C)NC(=O)[C@H](Cc2ccccc2)NC(=O)[C@H](CC(=O)O)NC1=O [compound 19] (H-H[dS]QGTFTSDKSKYLDERAA[S5]DFV[S5]WLLDT-NH2; staple 20-24) |
| 5 nM | – | CC(C)C[C@H](NC(=O)[C@H](Cc1ccc(O)cc1)NC(=O)[C@H](CCCCN)NC(=O)[C@H](CO)NC(=O)[C@H](CCCCN)NC(=O)[C@H](CC(=O)O)NC(=O)[C@H](CO)NC(=O)[C@@H](NC(=O)[C@H](Cc1ccccc1)NC(=O)[C@@H](NC(=O)CNC(=O)[C@H](CCC(N)=O)NC(=O)[C@@H](CO)NC(=O)[C@@H](N)Cc1c[nH]cn1)[C@@H](C)O)[C@@H](C)O)C(=O)N[C@@H](CC(=O)O)C(=O)N[C@@H](CCC(=O)O)C(=O)N[C@]1(C)CCCCC=CCCCCC[C@@](C)(C(=O)N[C@@H](Cc2c[nH]c3ccccc23)C(=O)N[C@@H](CC(C)C)C(=O)N[C@@H](CC(C)C)C(=O)N[C@@H](CC(=O)O)C(=O)N[C@H](C(N)=O)[C@@H](C)O)NC(=O)[C@H](C(C)C)NC(=O)[C@H](Cc2ccccc2)NC(=O)[C@H](CC(=O)O)NC(=O)[C@H](CCC(N)=O)NC(=O)[C@H](C)NC(=O)[C@H](C)NC1=O [compound 9] (H-H[dS]QGTFTSDKSKYLDE[X1]AAQDFV[S7]WLLDT-NH2; staple 17-24) |

The next lines start with the molecule.

| Compound | EC50 | hGCGR/hGLP1R (hTone) |
| --- | --- | --- |
| CCCCCCCCCCCCCCCC(=O)N[C@@H](CCC(=O)N[C@@H](CCC(=O)NCCCC[C@H](NC(=O)[C@H](CC(=O)O)NC(=O)[C@H](CO)NC(=O)[C@@H](NC(=O)[C@H](Cc1ccccc1)NC(=O)[C@@H](NC(=O)CNC(=O)[C@H](CCC(N)=O)NC(=O)C(C)(C)NC(=O)[C@@H](N)Cc1c[nH]cn1)[C@@H](C)O)[C@@H](C)O)C(=O)N[C@@H](CO)C(=O)N[C@@H](CCCCN)C(=O)N[C@@H](Cc1ccc(O)cc1)C(=O)N[C@@H](CC(C)C)C(=O)N[C@@H](CC(=O)O)C(=O)NC(C)(C)C(=O)N[C@@H](CCCNC(=N)N)C(=O)N[C@@H](C)C(=O)N[C@@H](C)C(=O)N[C@@H](CCC(N)=O)C(=O)N[C@]1(C)CCCCC=CCCCCC[C@@](C)(C(=O)N[C@H](C(=O)N[C@@H](CCCCN)C(=O)N[C@@H](CCC(N)=O)C(=O)O)[C@@H](C)O)NC(=O)[C@H](CCSC)NC(=O)[C@H](CC(C)C)NC(=O)[C@H](Cc2c[nH]c3ccccc23)NC(=O)[C@H](CCC(N)=O)NC(=O)[C@H](C(C)C)NC(=O)[C@H](Cc2ccccc2)NC1=O)C(=O)O)C(=O)O [compound 13] (H-H[Aib]QGTFTSDK([γGlu-γGlu-Palmitoyl])SKYLD[Aib]RAAQ[X1]FVQWLM[S7]TKQ-OH; staple 21-28) | 5 nM | 19.11 |
| CCCCCCCCCCCCCCCC(=O)N[C@@H](CCC(=O)N[C@@H](CCC(=O)NCCCC[C@H](NC(=O)[C@H](CC(=O)O)NC(=O)[C@H](CO)NC(=O)[C@@H](NC(=O)[C@H](Cc1ccccc1)NC(=O)[C@@H](NC(=O)CNC(=O)[C@H](CCC(N)=O)NC(=O)[C@@H](CO)NC(=O)[C@@H](N)Cc1c[nH]cn1)[C@@H](C)O)[C@@H](C)O)C(=O)N[C@@H](CO)C(=O)N[C@@H](CCCCN)C(=O)N[C@@H](Cc1ccc(O)cc1)C(=O)N[C@@H](CC(C)C)C(=O)N[C@@H](CC(=O)O)C(=O)N[C@@H](CCC(=O)O)C(=O)N[C@@H](CCCNC(=N)N)C(=O)N[C@@H](C)C(=O)N[C@@H](C)C(=O)N[C@H]1CCCC=CCCC[C@@H](C(=O)N[C@@H](Cc2c[nH]c3ccccc23)C(=O)N[C@@H](CC(C)C)C(=O)N[C@@H](CC(C)C)C(=O)N[C@@H](CC(=O)O)C(=O)N[C@H](C(N)=O)[C@@H](C)O)NC(=O)[C@H](C(C)C)NC(=O)[C@H](Cc2ccccc2)NC(=O)[C@H](CC(=O)O)NC1=O)C(=O)O)C(=O)O [compound 15] (H-H[dS]QGTFTSDK([γGlu-γGlu-Palmitoyl])SKYLDERAA[Nle(6-ylidene)]DFV[Nle(6-ylidene)]WLLDT-NH2; staple 20-24) | – | 0.44 |
| CCCCCCCCCCCCCCCC(=O)N[C@@H](CCC(=O)N[C@@H](CCC(=O)NCCCC[C@H](NC(=O)[C@H](CC(=O)O)NC(=O)[C@H](CO)NC(=O)[C@@H](NC(=O)[C@H](Cc1ccccc1)NC(=O)[C@@H](NC(=O)CNC(=O)[C@H](CCC(N)=O)NC(=O)C(C)(C)NC(=O)[C@@H](N)Cc1c[nH]cn1)[C@@H](C)O)[C@@H](C)O)C(=O)N[C@@H](CO)C(=O)N[C@@H](CCCCN)C(=O)N[C@@H](Cc1ccc(O)cc1)C(=O)N[C@@H](CC(C)C)C(=O)N[C@@H](CC(=O)O)C(=O)NC(C)(C)C(=O)N[C@@H](CCCNC(=N)N)C(=O)N[C@@H](C)C(=O)N[C@@H](C)C(=O)N[C@@H](CCC(N)=O)C(=O)N[C@@H](CC(=O)O)C(=O)N[C@@H](Cc1ccccc1)C(=O)N[C@H](C(=O)N[C@H]1CCCC=CCCC[C@@H](C(=O)N[C@H](C(=O)N[C@@H](CCCCN)C(=O)N[C@@H](CCC(N)=O)C(=O)O)[C@@H](C)O)NC(=O)[C@H](CC(C)C)NC(=O)[C@H](CC(C)C)NC(=O)[C@H](Cc2c[nH]c3ccccc23)NC1=O)C(C)C)C(=O)O)C(=O)O [compound 16] (H-H[Aib]QGTFTSDK([γGlu-γGlu-Palmitoyl])SKYLD[Aib]RAAQDFV[Nle(6-ylidene)]WLL[Nle(6-ylidene)]TKQ-OH; staple 24-28) | – | 2.67 |
| CCCCCCCCCCCCCCCC(=O)N[C@@H](CCC(=O)N[C@@H](CCC(=O)NCCCC[C@H](NC(=O)[C@H](CC(=O)O)NC(=O)[C@H](CO)NC(=O)[C@@H](NC(=O)[C@H](Cc1ccccc1)NC(=O)[C@@H](NC(=O)CNC(=O)[C@H](CCC(N)=O)NC(=O)[C@@H](CO)NC(=O)[C@@H](N)Cc1c[nH]cn1)[C@@H](C)O)[C@@H](C)O)C(=O)N[C@@H](CO)C(=O)N[C@@H](CCCCN)C(=O)N[C@@H](Cc1ccc(O)cc1)C(=O)N[C@@H](CC(C)C)C(=O)N[C@@H](CC(=O)O)C(=O)N[C@@H](CCC(=O)O)C(=O)N[C@@H](CCCNC(=N)N)C(=O)N[C@@H](C)C(=O)N[C@@H](C)C(=O)N[C@]1(C)CCCCC=CCCCCC[C@@](C)(C(=O)N[C@@H](CC(=O)O)C(=O)N[C@H](C(N)=O)[C@@H](C)O)NC(=O)[C@H](CC(C)C)NC(=O)[C@H](Cc2c[nH]c3ccccc23)NC(=O)[C@H](CCC(N)=O)NC(=O)[C@H](C(C)C)NC(=O)[C@H](Cc2ccccc2)NC(=O)[C@H](CC(=O)O)NC1=O)C(=O)O)C(=O)O [compound 10] (H-H[dS]QGTFTSDK([γGlu-γGlu-Palmitoyl])SKYLDERAA[X1]DFVQWL[S7]DT-NH2; staple 20-27) | – | 19.02 |
| CCCCCCCCCCCCCCCC(=O)N[C@@H](CCC(=O)N[C@@H](CCC(=O)NCCCC[C@H](NC(=O)[C@H](CC(=O)O)NC(=O)[C@H](CO)NC(=O)[C@@H](NC(=O)[C@H](Cc1ccccc1)NC(=O)[C@@H](NC(=O)CNC(=O)[C@H](CCC(N)=O)NC(=O)[C@@H](CO)NC(=O)[C@@H](N)Cc1c[nH]cn1)[C@@H](C)O)[C@@H](C)O)C(=O)N[C@@H](CO)C(=O)N[C@]1(C)CCCCC=CCCCCC[C@@](C)(C(=O)N[C@@H](CCC(N)=O)C(=O)N[C@@H](CC(=O)O)C(=O)N[C@@H](Cc2ccccc2)C(=O)N[C@H](C(=O)N[C@@H](CCC(N)=O)C(=O)N[C@@H](Cc2c[nH]c3ccccc23)C(=O)N[C@@H](CC(C)C)C(=O)N[C@@H](CC(C)C)C(=O)N[C@@H](CC(=O)O)C(=O)N[C@H](C(N)=O)[C@@H](C)O)C(C)C)NC(=O)[C@H](C)NC(=O)[C@H](CCCNC(=N)N)NC(=O)[C@H](CCC(=O)O)NC(=O)[C@H](CC(=O)O)NC(=O)[C@H](CC(C)C)NC(=O)[C@H](Cc2ccc(O)cc2)NC1=O)C(=O)O)C(=O)O [compound 7] (H-H[dS]QGTFTSDK([γGlu-γGlu-Palmitoyl])S[X1]YLDERA[S7]QDFVQWLLDT-NH2; staple 12-19) | 5 nM | – |

From patent publication US20230270825A1, “STAPLED OLEFIN CO-AGONISTS OF THE GLUCAGON AND GLP-1 RECEPTORS” (Merck Sharp & Dohme LLC, priority 2019, published 2023)
